Source: US4772596A, “Dihydropyridine derivatives, their preparation and their use” (Sankyo Company Limited, priority 1986, dated 1988)

Columns and labels:
[1] = test system: spontaneously hypertensive rats of the SHR strain; test: Antihypertensive activity in conscious spontaneously hypertensive rats (blood pressure and heart rate); conditions: po; for 12 Hour Area (integrated value of the area above the graph of blood pressure change against time): 12 hours after administration
Description: The test animals were spontaneously hypertensive rats of the SHR strain, each aged about 15 weeks. The antihypertensive activities of the test compounds were determined in these rats as follows.
Each animal was anaesthetized with sodium pentobarbital (50 mg/kg, intraperitoneally) and a polyethylene cannula was inserted into the abdominal aorta by the method of Weeks and Jones [J. R. Weeks and J. A. Jones, Proc. Soc. Exptl. […] The other end of the cannula left the animal's body at, and was fixed to, the neck. About 1 week after this surgery, when the animal had completely recovered from surgical stress, the free end of the aortic cannula was connected to a sphygmomanmeter to measure blood pressure and heart rate of the animal directly in the conscious, aparalytic and unrestrained state.
At this time, a test compound suspended in a 0.3% w/v aqueous carboxymethylcellulose solution was administered orally in the dose shown in the following Table 8.
Tmax : the time in hours after administration of the compound under test before the maximum change in blood pressure was recorded;
To 0.5 max : the time in hours after administration of the compound under test which is required for the blood pressure to return to one half of its maximum value;

isolated rat aorta = test: Calcium antagonism: contractile response of isolated rat aorta to calcium chloride; type: cell-based; conditions: test compound 5 nM
Description: An isolated rat aorta was suspended in a calcium-free and high potassium Krebs-Henseleit solution maintained at a temperature of 37° C. The contractile response of the aorta to calcium chloride in concentrations ranging from 10^-5 to 10^-2 M was recorded by means of an isometric transducer. The dose-response curve of the aorta was obtained before and after addition of a test compound at a concentration of 5 nM. Addition of the test compound shifted the dose-response curve to the right, the magnitude of the shift depending upon the potency of the Ca^++ -blocking activity.

[2] = SHR, compared with nifedipine and nicardipine

Compound	T0.5 max (time after administration for the blood pressure to return to one half of its maximum value) ([1]; 1 mg/kg, SHR) [h]	Tmax (time after administration before the maximum change in blood pressure) ([1]; 1 mg/kg, SHR) [h]	12 Hour Area (integrated value of the area above the graph of blood pressure change against time) ([1]; 1 mg/kg, SHR)	12 Hour Area (integrated value of the area above the graph of blood pressure change against time) ([1]; 3 mg/kg, SHR)	also measured
CC1=C(C(=O)OC(C)C)C(c2cccc([N+](=O)[O-])c2)C(C(=O)OC2CN(C(c3ccccc3)c3ccccc3)C2)=C(N)N1 (stereo not drawn) [Compound 1-11, 3-(1-Benzhydryl-3-azetidinyl) 5-isopropyl 2-amino-6-methyl-4-(3-nitrophenyl)-1,4-dihydropyridine-3,5-dicarboxylate]	10.4	6.0	-184	-334	Tmax (time after administration before the maximum change in blood pressure) ([1]; 3 mg/kg, SHR): 5.0 h; duration of the antihypertensive activity [1, 2]: much longer than that produced by nifedipine and nicardipine; time of onset of activity / speed of lowering blood pressure [1, 2]: lowered blood pressure much more slowly than did nifedipine or nicardipine; heart rate ([1]; rat, in vivo): (but not Compound 1-11) increased heart rate; duration of activity (calcium antagonism) (isolated rat aorta; isolated rat aorta): excellent duration of activity; rightwards shift of the calcium chloride dose-response curve (Ca++-blocking activity) (isolated rat aorta; calcium-free high potassium Krebs-Henseleit solution, 37° C): comparable with that of nifedipine
CC1=C(C(=O)OC(C)C)C(c2cccc(Cl)c2Cl)C(C(=O)OC2CN(C(c3ccccc3)c3ccccc3)C2)=C(N)N1 (stereo not drawn) [Compound 1-59, 3-(1-Benzhydryl-3-azetidinyl) 5-isopropyl 2-amino-4-(2,3-dichlorophenyl)-6-methyl-1,4-dihydropyridine-3,5-dicarboxylate]	12.0	6.0	-203	–	–
CC1=C(C(=O)OC(C)C)C(c2cccc([N+](=O)[O-])c2)C(C(=O)OC2CN(C(c3ccc(F)cc3)c3ccc(F)cc3)C2)=C(N)N1 (stereo not drawn) [Compound 1-68, 3-[1-(4,4'-Difluorobenzhydryl)-3-azetidinyl]5-isopropyl 2-amino-6-methyl-4-(3-nitrophenyl)-1,4-dihydropyridine-3,5-dicarboxylate]	11.8	7.0	-218	–	–
CC1=C(C(=O)OC(C)C)C(c2cccc([N+](=O)[O-])c2)C(C(=O)OC2CCN(C(c3ccccc3)c3ccccc3)C2)=C(N)N1 (stereo not drawn) [Compound 2-8, 3-(1-Benzhydryl-3-pyrrolidinyl) 5-isopropyl 2-amino-6-methyl-4-(3-nitrophenyl)-1,4-dihydropyridine-3,5-dicarboxylate]	11.2	6.0	-172	–	–
CC1=C(C(=O)OC(C)C)C(c2cccc([N+](=O)[O-])c2)C(C(=O)OC2CCCN(C(c3ccccc3)c3ccccc3)C2)=C(N)N1 (stereo not drawn) [Compound 3-8, 3-(1-Benzhydryl-3-piperidyl) 5-isopropyl 2-amino-6-methyl-4-(3-nitrophenyl)-1,4-dihydropyridine-3,5-dicarboxylate]	11.4	7.0	-141	–	–
COC(=O)C1=C(C)NC(C)=C(C(=O)OCCN(C)Cc2ccccc2)C1c1cccc([N+](=O)[O-])c1 (stereo not drawn) [nicardipine, reference compound]	–	–	–	-175	T0.5 max (time after administration for the blood pressure to return to one half of its maximum value) ([1]; 3 mg/kg, SHR): 5.3 h; Tmax (time after administration before the maximum change in blood pressure) ([1]; 3 mg/kg, SHR): 0.5 h
COC(=O)C1=C(C)NC(C)=C(C(=O)OC)C1c1ccccc1[N+](=O)[O-] [nifedipine, reference compound]	–	–	–	-237	heart rate ([1]; SHR): increased heart rate
